For data set [1], the system named is Meloidogyne incognita. Description: Preventive effect on Meloidogyne incognita (garden balsam seedlings, root knot). The class given is in vivo. As to conditions: 504 h, test solution B 100 ppm, 1 ml per seedling, 3 weeks, read-out: efficacy (damage degree, root knot, relative to non-treated plot). The protocol: Compounds of the present invention were dissolved in dimethylsulfoxide to prepare 1% solutions. Then, distilled water was added to dilute the solutions to the predetermined concentration (100 ppm), and the obtained solutions were used in the following Test Examples 8 to 12. 1 ml per seedling of test solutions B of the compounds of the present invention were treated to the bases of garden balsam seedlings (about 2 weeks after budding) planted in a cell tray of which each cell was filled with 10 g of soil. 1 Hour after the application, 1 ml per cell of water containing Meloidogyne incognita 2 L larvae (100 2 L larvae/1 ml) was applied to the bases. The tray was placed in a greenhouse for 3 weeks, and the root knot level formed on the root was determined in accordance with the following damage index and the damage degree to calculate the efficacy (%) relative to the non-treated plot in accordance with the following formula. <Damage Index> 0: No knot observed. 1: Knot observed on a part of the root system. 2: Knot observed on the entire root system. 3: Large knot observed. 4: Large knot observed on the entire root system. [Damage degree]=[Σ(damage index×number of seedlings at each index)/(4×number of seedlings investigated)]×100 Efficacy(%)=[1−(damage degree in treated plot/damage degree in non-treated plot)]×100

Data set [2] deals with Botrytis cinerea. The data set is described as follows: Preventive effect against cucumber gray mold (mycelium inoculation). The class given is in vivo. As to conditions: 48 h, test solution A 500 ppm, 2 days. As for the experimental part:
Compounds of the present invention were dissolved in a solvent for emulsion (a mixture of Sorpol (registered trademark) 3005XL (manufactured by Toho Chemical Industry Co., Ltd.): N-methylpyrrolidone:Solvesso (registered trademark) 200 (manufactured by ExxonMobil Chemical) in a ratio of 1:5:2) to prepare 20% emulsifiable concentrates. Then, distilled water was added to dilute the emulsifiable concentrates to the predetermined concentration (500 ppm), and the obtained solutions were used in the following Test Examples 1 to 7. Cucumber (cultivar: Sagami Hanjiro) was planted in 90 cm^3 plastic pots, and in the seed leaf stage, 5 ml per pot of test solutions A of the compounds of the present invention were applied. On the next day, the pots were put in a plastic container, and agar blocks (diameter: 5 mm) containing Botrytis cinerea preliminarily cultivated in a PDA medium were inoculated to the seed leaves of the cucumber treated with the solutions. After the inoculation, the plastic container was covered with a plastic sheet and humidified, and placed at 20° C. for 2 days, whereupon the proportion of the formed lesion in the inoculated leaves was measured to calculate the control value in accordance with the same formula as in Test Example 1. Here, the test was carried out in duplicate.

Data set [3] relates to Puccinia recondita. Description: Preventive effect against wheat brown leaf rust. It is filed as in vivo. Conditions: 216 h, test solution A 500 ppm, 1 + 8 days. The protocol:
(§1) Compounds of the present invention were dissolved in a solvent for emulsion (a mixture of Sorpol (registered trademark) 3005XL (manufactured by Toho Chemical Industry Co., Ltd.): N-methylpyrrolidone:Solvesso (registered trademark) 200 (manufactured by ExxonMobil Chemical) in a ratio of 1:5:2) to prepare 20% emulsifiable concentrates. Then, distilled water was added to dilute the emulsifiable concentrates to the predetermined concentration (500 ppm), and the obtained solutions were used in the following Test Examples 1 to 7. To wheat (cultivar: Norin-61-go) in 1.3-leaf stage planted in 90 cm^3 plastic pots, 5 ml per pot of test solutions A of the compounds of the present invention were applied. On the next day, a suspension of spore of Puccinia recondita was spray-inoculated to the wheat, and the pots were placed in an inoculation chamber at 20° C. under a humidity of 100% for 1 day. Then, the pots were placed in an air-conditioned greenhouse (20° C.) for 8 days. The proportion of the formed lesion in the inoculated leaves was measured to calculate the control value in accordance with the same formula as in Test Example 1. Here, the test was carried out in duplicate.

The subject of data set [4] is Phaeosphaeria nodorum (synonym: Septoria nodorum). Description: Preventive effect against wheat glume blotch. The class given is in vivo. As to conditions: Parastagonospora nodorum, 192 h, test solution A 500 ppm, 2 + 6 days. The protocol:
as §1, with “Haruyutaka)” for “Norin-61-go)”, “conidium” for “spore”, “Phaeosphaeria nodorum synonym: Septoria nodorum)” for “Puccinia recondita”, “2 days.” for “1 day.”, “6” for “8”

In general, melting point refers to the temperature of the solid-liquid transition.

SMILES strings stand for the structures.

For `CC(ON=C(CNC(=O)c1ccccc1C(F)(F)F)c1ncc(Cl)cc1Cl)c1ccc(F)cc1` (stereo not shown) [Compound No. 2-173, N-[2-(3,5-dichloropyridin-2-yl)-2-[1-(4-fluorophenyl)ethoxyimino]ethyl]-2-(trifluoromethyl)benzamide], in data set [1], the pest or weed control at 100 µg/mL is not below 50%.

`O=C(NC/C(=N\OCC1CC1)c1ncc(C(F)(F)F)cc1Cl)c1ccccc1C(F)(F)F` [Compound No. 2-023, (E)-N-[2-[3-chloro-5-(trifluoromethyl)pyridin-2-yl]-2-(cyclopropylmethoxyimino)ethyl]-2-(trifluoromethyl)benzamide] came in with a melting point of 98 to 101 °C.

The molecule `CON=C(CN(C(=O)c1ccccc1C(F)(F)F)C1CC1)c1ncc(Cl)cc1Cl` [4-007] returned a melting point of 75 to 77 °C.

For the molecule `CC(C)O/N=C(\CNC(=O)c1ccccc1C(F)(F)F)c1ncc(Cl)cc1Cl` [Compound No. 2-239, (E)-N-[2-(3,5-dichloropyridin-2-yl)-2-(isopropoxyimino)ethyl]-2-(trifluoromethyl)benzamide], the melting point was in the range of 54 to 57 °C.

Regarding `CO/N=C(\CNC(=O)c1ccccc1C(F)(F)F)c1ccc(Cl)cc1Cl` [Compound No. 1-004, (Z)—N-[2-(2,4-dichlorophenyl)-2-(methoxyimino)ethyl]-2-(trifluoromethyl)benzamide], the melting point was in the range of 146 to 148 °C.

Regarding `CON=C(CNC(=O)c1ccccc1C(F)(F)F)c1ncc(OC)cc1Cl` [2-083, N-[2-(3-chloro-5-methoxypyridin-2-yl)-2-(methoxyimino)ethyl]-2-(trifluoromethyl)benzamide], the pest or weed control at 500 µg/mL in data set [2] was not below 70%.

The molecule `O=C(NC/C(=N/OCC(F)(F)F)c1ncc(Cl)cc1Cl)c1ccccc1C(F)(F)F` [2-212, (Z)—N-[2-(3,5-dichloropyridin-2-yl)-2-(2,2,2-trifluoroethoxyimino)ethyl]-2-(trifluoromethyl)benzamide] registered a melting point of 100 to 102 °C. In data set [1], the pest or weed control at 100 µg/mL is not below 50%.

As for `CC(C)ON=C(CNC(=O)c1ccccc1C(F)(F)F)c1ncc(C#CC(C)(C)C)cc1Cl` [Compound No. 2-248, N-[2-[3-chloro-5-(3,3-dimethyl-1-butynyl)pyridin-2-yl]-2-(isopropoxyimino)ethyl]-2-(trifluoromethyl)benzamide], in data set [3], the pest or weed control at 500 µg/mL was not below 70%.

For `CC(C)O/N=C(/CNC(=O)c1ccccc1C(F)(F)F)c1ncc(Cl)cc1Cl` [Compound No. 2-128, (Z)—N-[2-(3,5-dichloropyridin-2-yl)-2-(isopropoxyimino)ethyl]-2-(trifluoromethyl)benzamide], the melting point lay in the range of 107 to 108 °C. The pest or weed control at 100 µg/mL in data set [1] was not below 50%.

On to `CC(C)(C)ON=C(CNC(=O)c1ccccc1C(F)(F)F)c1ncc(Cl)cc1Cl` [2-139, N-[2-(3,5-dichloropyridin-2-yl)-2-(tert-butoxyimino)ethyl]-2-(trifluoromethyl)benzamide], for which, in data set [4], the pest or weed control at 500 µg/mL was not below 70%.

With `CCC(C)O/N=C(/CNC(=O)c1ccccc1C(F)(F)F)c1ncc(Cl)cc1Cl` (stereo not shown) [2-136, (Z)—N-[2-(3,5-dichloropyridin-2-yl)-2-(sec-butoxyimino)ethyl]-2-(trifluoromethyl)benzamide], the melting point lay within 68 to 70 °C. In addition, the pest or weed control at 500 µg/mL in data set [3] was not below 70%.

With `CC(C)O/N=C(\CNC(=O)c1ccccc1C(F)(F)F)c1ncc(C(F)(F)F)cc1Cl` [Compound No. 2-019, (E)-N-[2-[3-chloro-5-(trifluoromethyl)pyridin-2-yl]-2-(isopropoxyimino)ethyl]-2-(trifluoromethyl)benzamide], the melting point fell in the range of 81 to 83 °C.

Take `CC(C)O/N=C(\c1ncc(Cl)cc1Cl)[C@H](C)NC(=O)c1ccccc1C(F)(F)F` [Compound No. 2-132, (S)—N-[2-(3,5-dichloropyridin-2-yl)-2-(Z)-(isopropoxyimino)-1-methylethyl]-2-(trifluoromethyl)benzamide]: the pest or weed control at 500 µg/mL in data set [4] was not below 70%.

With `CC(C)ON=C(CNC(=O)c1ccccc1C(F)(F)F)c1ncc(Br)cc1Cl` [Compound No. 2-181, N-[2-(5-bromo-3-chloropyridin-2-yl)-2-(isopropoxyimino)ethyl]-2-(trifluoromethyl)benzamide], the pest or weed control at 500 µg/mL in data set [4] was not below 70%. The pest or weed control at 100 µg/mL in data set [1] was not below 50%.

In data set [2], `CON=C(CNC(=O)c1ccccc1C(F)(F)F)c1ncc(OCC(F)(F)F)cc1Cl` [Compound No. 2-223, N-[2-[3-chloro-5-(2,2,2-trifluoroethoxy)pyridin-2-yl]-2-(methoxyimino)ethyl]-2-(trifluoromethyl)benzamide] gave a pest or weed control at 500 µg/mL not below 70%.

With `CCC(C)ON=C(CNC(=O)c1ccccc1C(F)(F)F)c1ncc(Cl)cc1Cl` (stereo not shown) [Compound No. 2-009, N-[2-(3,5-dichloropyridin-2-yl)-2-(sec-butoxyimino)ethyl]-2-(trifluoromethyl)benzamide], in data set [1], the pest or weed control at 100 µg/mL is not below 50%.

Turning to `CCON=C(CNC(=O)c1cn(C)nc1C(F)F)c1ncc(Cl)cc1Cl` [Compound No. 17-004, N-[2-(3,5-dichloropyridin-2-yl)-2-(ethoxyimino)ethyl]-3-difluoromethyl-1-methyl-1H-pyrazole-4-carboxamide], the pest or weed control at 500 µg/mL in data set [4] is not below 70%.

Regarding `O=C(NC/C(=N/OCC1CC1)c1ncc(C(F)(F)F)cc1Cl)c1ccccc1C(F)(F)F` [Compound No. 2-024, (Z)—N-[2-[3-chloro-5-(trifluoromethyl)pyridin-2-yl]-2-(cyclopropylmethoxyimino)ethyl]-2-(trifluoromethyl)benzamide], the melting point fell in the range of 73 to 74 °C. For the same molecule, the pest or weed control at 100 µg/mL in data set [1] was not below 50%.

Take `CO/N=C(/CNC(=O)c1ccccc1C(F)(F)F)c1ncc(Br)cc1Cl` [Compound No. 2-216, (Z)—N-[2-(5-bromo-3-chloropyridin-2-yl)-2-(methoxyimino)ethyl]-2-(trifluoromethyl)benzamide]: the melting point lay within 85 to 86 °C. The pest or weed control at 500 µg/mL in data set [4] is not below 70%. For the same molecule, the pest or weed control at 100 µg/mL in data set [1] is not below 50%.

Consider `CCO/N=C(/CNC(=O)c1ccccc1C(F)(F)F)c1ncc(C(F)(F)F)cc1Cl` [Compound No. 2-185, (Z)—N-[2-[3-chloro-5-(trifluoromethyl)pyridin-2-yl]-2-(ethoxyimino)ethyl]-2-(trifluoromethyl)benzamide], for which the melting point was in the range of 60 to 62 °C.

On to `CC(C)ON=C(CNC(=O)c1ccccc1C(F)(F)F)c1ncc(Cl)cc1Cl` [Compound No. 2-005, N-[2-(3,5-dichloropyridin-2-yl)-2-(isopropoxyimino)ethyl]-2-(trifluoromethyl)benzamide], for which the pest or weed control at 500 µg/mL in data set [3] was not below 70%.

These data come from patent US9434684B2, “Oxime-substituted amide compound and pest control agent” (Nissan Chemical Industries, Ltd., priority 2012, dated 2016).
